“Also recorded” adds a separate entry of the source. Where two headings read alike, the source gives them in different places.
Key:
human PMNs = assay type: cell-based
Experimental: A comprehensive human immune assay was established using the XCelligence in vitro impedance system that obtains real-time kinetics of target cell killing. (ACEA BioSciences, San Diego, Calif., Catalog No. 00380601040). Wild-type (wt) and engineered iPSCs were differentiated into endothelial cells for this assay. […] Some experimental groups were treated with IL-2 (1 ng/ml), which is a central cytokine involved in allograft rejection. The assays were run for a duration of 90 h which is the maximum time period iECs can be cultured in this system before the monolayer breaks down spontaneously.
The immune system not only distinguishes between “self” and “non-self”, but also reacts to “danger” signals: released by autologous cells in distress. Matzinger, Ann. Rev. Immunol. 12:991-1045 (1994), incorporated by reference herein in its entirety. Intracellular components, released by damaged cells, can act as adjuvants and boost immune activation to alarm the immune system of cell death. Because apoptosis activates programmed cell death pathways aimed at digesting intracellular proteins, apoptotic cells are considered weak releasers of danger signals. […] For our in vitro assays, 20,000 target cells were sonicated to disrupt their cell membrane and release DAMPs and the cell debris was added to prior grown and confluent target iEC layer in Xcelligence assays.
Thus, for DAMP-activated XCelligence assays, iECs were plated and in addition to the immune effector cells, 20,000 sonicated target cells were added at the same time. […]
Ligands for CD200R and PIRLα are CD200 and CD99, respectively. Recombinant human CD200 Fc chimera proteins (R&D Systems, Minneapolis, Minn., Catalog no. 2724-CD-050) and CD99 Fc chimera proteins (R&D Systems, Minneapolis, Minn., Catalog no. 3968-CD-050) engage these receptors. These Fc chimera proteins were added to the assays at 10 μg/ml. There is no known ligand for SIRL-1 but there is an activating monoclonal SIRL-1 antibody to trigger downstream inhibitory signaling (Steevels T A., Eur J. Immunol. 43(5):1297-308 (2013)). The human PMNs were activated via DAMPs or IL-2 and the killing of human wt and HIP iECs was assessed (FIG. 8).
BAY 85-8501 was used at 1 nM or 1 μM concentrations. The effector PMNs were stimulated with sonicated cells or IL-2.
Activating receptors include the family of toll-like receptors (TLRs) that are activated by a wide range of ligands including DAMPs. PMN activation pathways were inhibited by TAK-242 (MedChem Express, Monmouth Junction, N.J., Catalog No. HY-11109, 10 μM for in vitro Xcelligence assays), a small-molecule inhibitor of TLR-4-mediated signaling. Wild-type and HIP cells were used on the XCelligence platform using PMNs as effector cells (FIG. 13). Necrotic cells or IL-2 were used as PMN stimulators.

[1] = in mice; cited from earlier work
[2] = 10 μM, DAMP- or IL-2 activated PMNs
[3] = PMNs activated via DAMPs (necrotic/sonicated cells), Fc chimera proteins 10 μg/ml
[4] = PMNs stimulated with IL-2, Fc chimera proteins 10 μg/ml

**Q.** For `COc1cc(C(C)=O)ccc1O` [Apocynin], which “PMN killing of wt and HIP iECs” value (human PMNs; [2]) is on record?
**A.** Its value is “diminished”.

**Q.** With `CCOC(=O)C1=CCCC[C@H]1S(=O)(=O)Nc1ccc(F)cc1Cl` [TAK-242] as the molecule, how does the “PMN killing of wt and HIP iECs, efficacy by stimulator” value (human PMNs; 10 μM, DAMPs compared with IL-2) read?
**A.** The value was “stronger”.

**Q.** And the “PMN killing of wt and HIP iECs” value (human PMNs; 10 μM, IL-2)?
**A.** Its value is “still markedly reduced”.

**Q.** And the “PMN killing of wt and HIP iECs” value (human PMNs; 10 μM, necrotic cells (DAMPs) or IL-2 as PMN stimulators)?
**A.** Its value is “diminished PMN killing”.

**Q.** With `CC1=C(C#N)[C@@H](c2ccc(C#N)cc2S(C)(=O)=O)N(C)C(=O)N1c1cccc(C(F)(F)F)c1` [BAY 85-8501] as the molecule, how does the “PMN killing of wt or HIP target cells” value (human PMNs; 1 nM, compared with 1 μM) read?
**A.** Its value is “less effective”.

**Q.** And the “PMN killing of wt or HIP target cells” value (human PMNs; 1 μM, PMNs activated via DAMPs from sonicated cells)?
**A.** The value was “fully prevented”.

**Q.** And the “PMN killing of wt or HIP target cells” value (human PMNs; 1 μM, in the presence of IL-2)?
**A.** Its value is “further delayed the target cell killing”.

**Q.** With `COc1cc2c(c(OC)c1OC)-c1ccc(OC)c(=O)cc1[C@@H](NC(C)=O)CC2` [colchicine] as the molecule, how does the “PMN killing of wt and HIP iECs” value (human PMNs; 1 μM monotherapy, DAMP or IL-2 activated PMNs) read?
**A.** Its value is “mild inhibitor; also recorded: only marginal efficacy”.

**Q.** With “A1AT: Alpha-1 antitrypsin, Neutrophil Elastase inhibitor (Sigma-Aldrich A9024)” as the molecule, how does the “PMN killing of wt and HIP iECs” value (human PMNs; 30 μM recombinant A1AT) read?
**A.** The value was “minorly effective; also recorded: some minor activity against PMN killing”.

**Q.** What about the “Half-life of A1AT” value [1] of the same molecule?
**A.** The value was “approx. 4.5 days”.

**Q.** Which “PMN killing of wt and HIP iECs” value (human PMNs; [2]) does the source give for `CC[C@H](Nc1ncnc2[nH]cnc12)c1nc2cccc(F)c2c(=O)n1-c1ccccc1` [Idelalisib] here?
**A.** Its value is “mildly diminished PMN killing”.

B1: CD200 Fc chimera: Recombinant human CD200 Fc chimera protein (R&D Systems 2724-CD-050), ligand for CD200R (protein)
chain: QVQVVTQDEREQLYTPASLKCSLQNAQEALIVTWQKKKAVSPENMVTFSENHGVVIQPAYKDKINITQLGLQNSTITFWNITLEDEGCYMCLFNTFGFGKISGTACLTVYVQPIVSLHYKFSEDHLNITCSATARPAPMVFWKVPRSGIENSTVTLSHPNGTTSVTSILHIKDPKNQVGKEVICQVLHLGTVTDFKQTVNKG
modifications: left off: a dimerising Fc or GST
notes: Recombinant human CD200 Fc chimera protein (R&D Systems 2724-CD-050), ligand for CD200R
**Q.** Which “PMN killing of wt and HIP iECs” value (human PMNs; [3]) does the source give for B1 here?
**A.** Its value is “prevented PMN killing”.

**Q.** And the “PMN killing of wt and HIP iECs” value (human PMNs; [4])?
**A.** Its value is “somewhat delayed”.

**Q.** What about the “PMN killing of wt and HIP iECs” value (human PMNs; PMNs stimulated with IL-2, Fc chimera proteins 10 μg/ml, listed as recombinant CD200) of the same molecule?
**A.** The value was “delayed but not prevented”.

B2: CD99 Fc chimera: Recombinant CD99 Fc chimera protein (R&D Systems 3968-CD-050), ligand for PIRLα (protein)
chain: DGGFDLSDALPDNENKKPTAIPKKPSAGDDFDLGDAVVDGENDDPRPPNPPKPMPNPNPNHPSSSGSFSDADLADGVSGGEGKGGSDGGGSHRKEGEEAD
modifications: left off: a dimerising Fc or GST
notes: Recombinant CD99 Fc chimera protein (R&D Systems 3968-CD-050), ligand for PIRLα
**Q.** What does the source list for B2?
**A.** PMN killing of wt and HIP iECs (human PMNs; [3]): prevented PMN killing; PMN killing of wt and HIP iECs (human PMNs; [4]): somewhat delayed; PMN killing of wt and HIP iECs (human PMNs; PMNs stimulated with IL-2, Fc chimera proteins 10 μg/ml, listed as CD99): delayed but not prevented
